Test results reported in patent US20230381176A1, “A PHARMACEUTICAL COMPOSITION AND USE THEREOF FOR TREATMENT OF CANCER” (Ascentage Pharma (Suzhou) Co., Ltd., priority 2020, published 2023).

Tests used:
A549 NSCLC xenograft = experiment: s.c. A549 NSCLC lung cancer model, Compound 5 and panobinostat; format: in vivo, mouse
NCI-H2228 tumor cells = experiment: Cell viability WST (CCK-8) assay, combination of Compound 5 and Compound 34; format: cell-based; conditions: Homo sapiens, 72 hours, single agent, read-out: Compound A IC50
Protocol: Cell plating: Anti-proliferative effects were detected by a CCK-8 (Cell Counting Kit-8, Shanghai life iLab, China) assay based on water soluble tetrazolium salt (WST). The cells were seeded in 96-well plates, and only 95 μL of complete medium was added to each negative control group. 95 μL of complete medium cell suspension was added to each well to be tested, and the cell density was (5-10)×10^4/hole. Dosing (protection from light): […] After 72 hours of action by using 6 different concentrations of Compound 34 with 3 fixed doses of Compound 5, the combination effect of Compound 5 an Compound 34 was tested. Reading: […] The plates were continuously incubated at 37 ° C. for 2-4 hours in a CO2 incubator. The OD values were measured using a microplate reader (SpectraMax Plus 384, Molecular Devices, LLC., US) under A450 nm. […] (O.D. of test well−O.D. of blank control well)/(O.D. of cell control well−O.D. of blank control well)×100%. IC50 values were calculated using Graphpad Prism 6.0 software for nonlinear regression data analysis method.

ovarian PDX OV1658 = experiment: Ovarian PDX model OV1658, Compound 5 and carboplatin and/or paclitaxel; format: in vivo, mouse
Protocol: (§1) A subcutaneous xenograft tumor model of human tumor immunodeficient mice was established by cell inoculation: tumor cells in logarithmic growth phase were collected, counted, resuspended in 1×PBS, and the cell suspension concentration was adjusted to 2.5-5 ×10^7/mL. The tumor cells were inoculated subcutaneously in the right side of immunodeficient mice with a 1 mL syringe ([…]), 5-10×10^6/0.2 mL/mouse. All animal experiments were strictly in accordance with the specifications for the use and management of experimental animals in GenePharma Co., Ltd. and Suzhou Ascentage Pharma Co., Ltd. The calculation of relevant parameters refers to the Chinese NMPA “Guidelines for Non-Clinical Research Techniques of Cytotoxic Anti-tumor Drugs”.
(§2) Animal body weight and tumor size were measured twice weekly during the experiment. The state of the animal and the presence or absence of death were observed every day. The growth of tumor and the effects of treatment on normal behavior of animals were monitored routinely, specifically involving experimental animal activity, feeding and drinking, weight gain or loss, eyes, clothing hair and other abnormalities. The deaths and clinical symptoms observed during the experiment were recorded in the raw data. All operations for administration and measurement of mouse body weight and tumor volume were performed in a clean bench. According to the requirements of the experimental protocol, after the end of the last administration, plasma and tumor tissues were collected, weighed and photographed. The plasma and tumor samples were frozen at −80° C. for ready-to-use.
(§3) Tumor volume (TV) is calculated as: TV=a×b^2/2, wherein a and b represent the length and width of the tumor to be measured, respectively.
(§4) The relative tumor volume (RTV) is calculated as: RTV=Vt/V1, wherein V1 is the tumor volume at the start of grouping and administration, and Vt is the tumor volume measured on the t day after administration.
(§5) Change of body weight (%)=(measured body weight−body weight at the start of grouping)/body weight at the start of grouping×100%.
(§6) A dose of drug is considered to be severely toxic if the body weight of mouse is reduced by more than 20% or the number of drug-related deaths exceeds 20%.
(§7) According to the description by Clarke R., Issues in experimental design and endpoint analysis in the study of experimental cytotoxic agents in vivo in breast cancer and other models [J]. Breast Cancer Research & Treatment, 1997, 46(2-3): 255-278, synergy analysis was evaluated using the following formula: synergy factor=((A/C)×(B/C))/(AB/C); A=RTV value of drug A alone group; B=RTV value of drug B alone group; C=RTV value of the solvent control group, and AB=RTV value of the A and B combination group.
(§8) Use of mRECIST (Gao et al., 2015) measured tumor responses included stable disease (SD), partial tumor regression (PR), and complete regression (CR), determined by comparing tumor volume change at day t to its baseline: tumor volume change (%)=(Vt−V1)/V1. The BestResponse was the minimum value of tumor volume change (%) for t≥10. For each time t, the average of tumor volume changes from t=1 to t was also calculated. BestAvgResponse was defined as the minimum value of this average for t≥10. The criteria for response (mRECIST) were adapted from RECIST criteria (Gao et al., 2015; Therasse et al., 2000) and defined as follows: mCR, BestResponse<−95% and BestAvg Response<−40%; mPR, BestResponse<−50% and BestAvgResponse<−20%; mSD, BestResponse<35% and BestAvgResponse<30%; mPD, not otherwise categorized. SD, PR, and CR were considered responders and used to calculate response rate (%). […] Body weight of animals were monitored simultaneously. The change in body weight was calculated based on the animal weight of the first day of dosing (day 1). Tumor volume and changes in body weight (%) were represented as the mean±standard error of the mean (SEM).

[1] = system: PTK2 high ovarian PDX OV2018; experiment: PTK2 high ovarian PDX model OV2018, Compound 5 and paclitaxel; format: in vivo, mouse
Protocol: as §1, §2, §3, §4, §5, §6, §7, §8

[2] = Compound 5 100 mg/kg orally once per day, panobinostat 3 mg/kg i.p. 5 days then 2 days break, 14 days
[3] = Compound 5 50 mg/kg orally once per day, carboplatin 30 mg/kg i.p. once a week, paclitaxel 10 mg/kg i.v. once a week, 19 days
[4] = best response, animals per class
[5] = Compound 5 50 mg/kg orally once per day, paclitaxel 10 mg/kg i.v. once a week, 35 days

## Cc1cc(Nc2ncc(Cl)c(Nc3ccccc3S(=O)(=O)C(C)C)n2)c(OC(C)C)cc1C1=CCN(C2CCOCC2)CC1 [Compound 5, 5-chloro-N^2-(2-isopropoxy-5-methyl-4-(1-(tetrahydro-2H-pyran-4-yl)-1,2,3,6-tetrahydropyridin-4-yl)phenyl)-N^4-(2-(isopropylsulfonyl)phenyl)pyrimidine-2,4-diamine]
A549 NSCLC xenograft; [2]
  RTV on Day 14 after administration (mean ± standard error): 3.21 ± 0.46
  T/C on Day 14 after administration (%): 89.54%
A549 NSCLC xenograft; mouse, in vivo
  antitumor activity (conclusion in words): minor antitumor activity
NCI-H2228 tumor cells
  IC50: 906 nM
Ovarian PDX OV1658; [3]
  RTV on Day 19 after administration (mean ± standard error): 14.57 ± 0.47
  T/C on Day 19 after administration (%): 106.67%
Ovarian PDX OV1658; Day 19, animals per class
  mRECIST on Day 19 after administration: 2/2 PD
Ovarian PDX OV1658; [4]
  mRECIST: 2/2 PD
[1]; [5]
  RTV on Day 35 after administration (mean ± standard error): 3.94 ± 0.41
  T/C on Day 35 after administration (%): 162.80%
[1]; Day 35, animals per class
  mRECIST on Day 35 after administration: 2/2 PD
[1]; [4]
  mRECIST: 2/2 PD
[1]; mouse, in vivo
  antitumor activity (conclusion in words): no antitumor activity
